Values of other authors in US20230038462A1, “TRANSDERMAL PENETRANT FORMULATIONS CONTAINING CANNABIDIOL” (DYVE BIOSCIENCES, INC., priority 2019, published 2023).

C=C(C)[C@@H]1CCC(C)=C[C@H]1c1c(O)cc(CCCCC)cc1O [Cannabidiol]
side effects of long-term use: somnolence, decreased appetite, diarrhea, fatigue, malaise, weakness, and sleeping problems
